Assay results from article PMC9114115, “Property space mapping of Pseudomonas aeruginosa permeability to small molecules” (Scientific Reports, 2022).
In brackets after ≈: the same amount, converted by molar mass. Several values for one entry are separate records, joined by “and”; a condition that tells them apart may be missing. Identical values can stand only once. Like-named read-outs stand apart in the source and are kept apart here.

Tests used:
P. aeruginosa PAO1 = experiment: MIC by two-fold dilution, wild type PAO1; type: cell-based, Pseudomonas aeruginosa; conditions: for MIC: Pseudomonas aeruginosa
How it was run: (§1)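 Media differed between series: LB or MOPS-M9. Hyperporinated strains express FhuA from PLAC at the attTn7 site, and the efflux-deficient ones are ΔmexAB ΔmexCD ΔmexXY.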

P. aeruginosa PAO1-Pore = experiment: MIC by two-fold dilution, hyperporinated PAO1-Pore; type: cell-based, Pseudomonas aeruginosa; conditions: for MIC: Pseudomonas aeruginosa; for MICs: PAO1-Pore, LB broth, Table S2
How it was run: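 Minimum inhibitory concentrations were determined by serial two-fold dilution, in LB broth for one series and MOPS-M9 medium for the other. Bacteria were cultured at 37 °C with aeration.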

P. aeruginosa PΔ3 = experiment: microbe, parasite or virus in culture; type: cell-based, Pseudomonas aeruginosa; conditions: Pseudomonas aeruginosa
Experimental: In all experiments, P. aeruginosa PAO1-Pore (PAO1 attTn7::PLAC-fhuA) and PΔ3-Pore (ΔmexAB ΔmexCD ΔmexXY attTn7::PLAC-fhuA) strains were used[29]. Strains were routinely grown in Luria–Bertani (LB) or MOPS-M9 medium at 37 °C with aeration. MICs shown in Tables 1 and 2 were determined by a two-fold dilution method in LB broth and MOPS-M9 medium, respectively, following the previously described protocol.

P. aeruginosa PΔ3-Pore = experiment: MIC by two-fold dilution, barrierless PΔ3-Pore; type: cell-based, Pseudomonas aeruginosa; conditions: for MIC: Pseudomonas aeruginosa; for MICs: P∆3-Pore, Table S2
How it was run: as §1

[1] = test system: four strains of P. aeruginosa; type: cell-based, Pseudomonas aeruginosa
Experimental: Cells were sub-cultured (50–100 mL) 1:100 in fresh LB broth in two flasks per strain. At OD600 0.3 (~ 1.5 to 2 h of incubation), the expression of the pore was induced with 0.1 mM IPTG (final concentration) in one of the flasks and cells were grown for additional 1 to 1.5 h (OD600 1- 1.5). Cells were collected by centrifugation at room temperature (RT) and washed in PMG Buffer (50 mM KPi, pH 7.0, 1 mM MgSO4, 0.4% glucose, prepared fresh) and concentrated 20x (i.e., 100 mL culture resuspended in 5 ml of PMG Buffer with final OD600 ~ 20–30). Assays were performed in 96-well 1.0 µm Glass Fiber Type B filters plates (Millipore). […]
[…] Filter plates were dried, removed from the vacuum manifold and left in the hood overnight to dry completely.

[2] = test system: P. aeruginosa hyperporinated strains; experiment: Vancomycin susceptibility spot assay on minimal medium; type: cell-based, Pseudomonas aeruginosa; conditions: MOPS-M9 medium, in the presence of inducer
Experimental: PAO1-Pore and PΔ3-Pore were grown at 37 °C overnight with shaking at 225 rpm in 50 mM MOPS-M9 (pH 7.2) Minimal Medium supplemented with 1% glycerol[42],[43].

P. aeruginosa PAO1 cells = experiment: LC–MS quantification of intracellular accumulation, PAO1; conditions: 10-80 µM; for Concentration slopes of accumulation, PAO1_1 min: 1 min incubation; for Concentration slopes of accumulation, PAO1_40 min: 40 min incubation;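 for all read-outs here: slope of accumulation versus external concentration fitted as a line through zero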
How it was run: (§2)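 Cells grown in MOPS-M9 (pH 7.2) with 1% glycerol, Pore strains induced with 0.1 mM IPTG, concentrated 10X in spent medium and exposed to 10, 20, 40, 80 µM compound for 1 and 40 min at RT. Filter-collected cells extracted with methanol; compound quantified by positive-ion LC–MS against calibration in PAO1 cell extract, no-cell filter controls.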

[3] = test system: P. aeruginosa PAO1-Pore cells; experiment: LC–MS quantification of intracellular accumulation, PAO1-Pore; conditions: 10-80 µM; for Concentration slopes of accumulation, PAO1-Pore_1 min: 1 min incubation; for Concentration slopes of accumulation, PAO1-Pore_40 min: 40 min incubation;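 for all read-outs here: slope of accumulation versus external concentration fitted as a line through zero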
How it was run: as §2

P. aeruginosa PΔ3 cells = conditions: 10-80 µM; for Concentration slopes of accumulation, PΔ3_1 min: 1 min incubation; for Concentration slopes of accumulation, PΔ3_40 min: 40 min incubation;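 for all read-outs here: slope of accumulation versus external concentration fitted as a line through zero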
How it was run: as §2

[4] = test system: P. aeruginosa PΔ3-Pore cells; experiment: LC–MS quantification of intracellular accumulation, PΔ3-Pore; conditions: 10-80 µM; for Concentration slopes of accumulation, PΔ3-Pore_1 min: 1 min incubation; for Concentration slopes of accumulation, PΔ3-Pore_40min: 40 min incubation;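 for all read-outs here: slope of accumulation versus external concentration fitted as a line through zero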
How it was run: as §2

P. aeruginosa = conditions: sheet "Good" permeators; all listed compounds are good permeators
Experimental: The measured levels of compound accumulation were analyzed using machine learning to determine which features of the compounds are most important for enabling their cellular accumulation and to determine their optimal values. […] To accentuate the permeability aspect, the accumulation slopes in efflux-deficient and hyperporinated strains were normalized to those in the parental PAO1 strain.
To help visualize the data, we performed a principal component (PC) decomposition of the data.

[5] = PAO1, LB broth, Table 1, read-out: MIC
[6] = radioactively labeled compound, four strains, 20 min
[7] = PAO1, MOPS-M9 medium, read-out: MICs
[8] = read-out: MICs, P∆3-Pore, MOPS-M9 medium

SMILES	MIC (P. aeruginosa PAO1; [5])	MIC (P. aeruginosa PAO1-Pore; PAO1)	MIC (P. aeruginosa PΔ3)	MIC (P. aeruginosa PΔ3-Pore; PΔ3-Pore, LB broth, Table 1)	effect of efflux inactivation and hyperporination on accumulation [1, 6]	MIC (P. aeruginosa PAO1; [7])	MICs (P. aeruginosa PAO1-Pore)	MIC (P. aeruginosa PAO1-Pore; PAO1, read-out: MICs)	MIC (P. aeruginosa PΔ3; read-out: MICs)	MIC (P. aeruginosa PΔ3-Pore; [8])	MICs (P. aeruginosa PΔ3-Pore; LB broth)	Concentration slopes of accumulation, PAO1_1 min (P. aeruginosa PAO1 cells)	Concentration slopes of accumulation, PAO1_40 min (P. aeruginosa PAO1 cells)	Concentration slopes of accumulation, PAO1-Pore_1 min [3]	Concentration slopes of accumulation, PAO1-Pore_40 min [3]	Concentration slopes of accumulation, PΔ3_1 min (P. aeruginosa PΔ3 cells)	Concentration slopes of accumulation, PΔ3_40 min (P. aeruginosa PΔ3 cells)	Concentration slopes of accumulation, PΔ3-Pore_1 min [4]	Concentration slopes of accumulation, PΔ3-Pore_40min [4]	further results
CC(C)Nc1cccnc1N1CCN(C(=O)c2cc3cc(NS(C)(=O)=O)ccc3[nH]2)CC1 [Delavirdine]	> 1000 µM	> 1000 µM	> 1000 µM	> 1000 µM	equally affected by inactivation of efflux and hyperporination															effect of efflux inactivation and hyperporination on accumulation ([1]; radioactively labeled compound, four strains, 20 min, listed as [^3H]-delavirdine): Hyperporination had the strongest effect
COCCc1ccc(OCC(O)CNC(C)C)cc1 (stereo not shown) [Metoprolol]	> 1000 µM	> 1000 µM	> 1000 µM	> 1000 µM	not affected by either of the two barriers															
CN[C@H](CC(C)C)C(=O)N[C@H]1C(=O)N[C@@H](CC(N)=O)C(=O)N[C@H]2C(=O)N[C@H]3C(=O)N[C@H](C(=O)N[C@H](C(=O)O)c4cc(O)cc(O)c4-c4cc3ccc4O)[C@H](O)c3ccc(c(Cl)c3)Oc3cc2cc(c3O[C@@H]2O[C@H](CO)[C@@H](O)[C@H](O)[C@H]2O[C@H]2C[C@](C)(N)[C@H](O)[C@H](C)O2)Oc2ccc(cc2Cl)[C@H]1O [vancomycin]																				susceptibility in spot assay [2]: highly susceptible
Cc1cc(C(C)(C)C)c(O)c(C)c1CC1=NCCN1 [Oxymetazoline]	> 1000 µM	> 1000 µM	1000 µM (≈ 260 µg/mL)	1000 µM (≈ 260 µg/mL)	Efflux inactivation or hyperporination resulted in a similar increase															accumulated radioactivity washed out of cells ([1]; PΔ3-Pore cells, 30 min incubation, 0.1 mL wash): 95%
O=C(O)c1cn(C2CC2)c2cc(N3CCNCC3)c(F)cc2c1=O [OU-0001036, Ciprofloxacin]	0.19 µM and 0.06 µg/mL	0.09 µM and 0.03 µg/mL	0.05 µM and 0.02 µg/mL	0.02 µM and 0.01 µg/mL	inactivation of efflux led to significantly higher levels of accumulation	1 µM and 0.33 µg/mL	0.09	0.0625 µM and 0.02 µg/mL	0.25 µM and 0.08 µg/mL	0.031 µM and 0.01 µg/mL	0.02	1.15	2.47	3.53	3.32	2.99	1.33	2.77	2.77	effect of hyperporination on antibacterial activity (P. aeruginosa PAO1-Pore; MIC PAO1 vs PAO1-Pore): two-fold
CC(=O)NC[C@H]1CN(c2ccc(N3CCOCC3)c(F)c2)C(=O)O1 [OU-0031508, linezolid]						> 200 µM and > 67.5 µg/mL	25	200 µM (≈ 67.5 µg/mL)	200 µM (≈ 67.5 µg/mL)	25 µM (≈ 8.43 µg/mL)	12.5	34.71	41.30	12.71	26.51	39.20	25.30	30.83	28.73	Cluster of the identified "good" permeators (P. aeruginosa): 3
Cc1cc(C)nc(NS(=O)(=O)c2ccc(N)cc2)n1 [OU-0000689, SULFAMETHAZINE]						> 200 µM and > 60.1 µg/mL		50 µM and 15 µg/mL	100 µM and 30 µg/mL	12.5 µM and 3.75 µg/mL		1.42	1.40	1.53	1.05	1.31	1.35	1.54	1.19	Cluster of the identified "good" permeators (P. aeruginosa): 1
CCn1cc(C(=O)O)c(=O)c2cc(F)c(N3CCNC(C)C3)c(F)c21 (stereo not shown) [OU-0000616, LOMEFLOXACIN]						2.5 µM (≈ 0.878 µg/mL)	1.56	0.125 µM (≈ 0.0439 µg/mL)	0.625 µM (≈ 0.22 µg/mL)	0.125 µM (≈ 0.0439 µg/mL)	0.024	3.37	2.56	2.85	10.46	2.91	6.86	3.95	8.65	MICs (P. aeruginosa PAO1; PAO1, LB broth, Table S2): 1.56; Cluster of the identified "good" permeators (P. aeruginosa): 4
NC(=O)Cc1cccc(C(=O)c2ccccc2)c1N [Nepafenac]		> 1000 µM	> 1000 µM	> 1000 µM	Hyperporination had the strongest effect															MIC (P. aeruginosa PAO1; PAO1): > 1000 µM
CN(C)[C@@H]1C(O)=C(C(N)=O)C(=O)[C@@]2(O)C(O)=C3C(=O)c4c(O)cccc4[C@@](C)(O)[C@H]3C[C@@H]12 [Tetracycline]	12.5 µM and 5.56 µg/mL	0.39 µM and 0.17 µg/mL	0.78 µM and 0.35 µg/mL	0.78 µM and 0.35 µg/mL			0.39-1.56				0.78									effect of efflux inactivation and hyperporination on accumulation ([1]; not told): equally affected by inactivation of efflux and hyperporination
O=C1Nc2ccc(Cl)cc2[C@@](C#CC2CC2)(C(F)(F)F)O1 [Efavirenz]	> 1000 µM	> 1000 µM	> 1000 µM	25 µM and 7.89 µg/mL																MIC (P. aeruginosa PΔ3-Pore; PΔ3-Pore cells): 25000 µM (≈ 7890 µg/mL); effect of efflux inactivation and hyperporination on accumulation ([1]; not told): Hyperporination had the strongest effect
